Patent publication US12479804B2, “Herbicidal compounds” (SYNGENTA CROP PROTECTION AG, priority 2019, dated 2025)

Legend:
Test in all cases: Glasshouse herbicidal test, pre- and post-emergence, percentage damage to the plant
Format in all cases: in vivo
[1] = system: Alopecurus myosuroides (ALOMY); settings: 250 g/h, evaluated after 13 days; for ALOMY POST percentage damage caused to the plant (five-point scale): post-emergence; for ALOMY PRE percentage damage caused to the plant (five-point scale): pre-emergence
Procedure: (§1) Seeds of a variety of test species are sown in standard soil in pots (Lolium perenne (LOLPE), Setaria faberi (SETFA), Alopecurus myosuroides (ALOMY), Echinochloa crus-galli (ECHCG), Avena fatua (AVEFA)). After cultivation for one day (pre-emergence) or after 8 days cultivation (post-emergence) under controlled conditions in a glasshouse (at 24/16° C., day/night; 14 hours light; 65% humidity), the plants are sprayed with an aqueous spray solution derived from the formulation of the technical active ingredient in acetone/water (50:50) solution containing 0.5% Tween 20 (polyoxyethelyene sorbitan monolaurate, CAS RN 9005-64-5). Compounds are applied at 250 g/h. The test plants are then grown in a glasshouse under controlled conditions in a glasshouse (at 24/16° C., day/night; 14 hours light; 65% humidity) and watered twice daily. After 13 days for pre and post-emergence, the test is evaluated for the percentage damage caused to the plant. The biological activities are shown in the following table on a five-point scale (5=80-100%; 4=60-79%; 3=40-59%; 2=20-39%; 1=0-19%).

[2] = system: Avena fatua (AVEFA); settings: 250 g/h, evaluated after 13 days; for AVEFA POST percentage damage caused to the plant (five-point scale): post-emergence; for AVEFA PRE percentage damage caused to the plant (five-point scale): pre-emergence
Procedure: as §1

[3] = system: Echinochloa crus-galli (ECHCG); settings: 250 g/h, evaluated after 13 days; for ECHCG POST percentage damage caused to the plant (five-point scale): post-emergence; for ECHCG PRE percentage damage caused to the plant (five-point scale): pre-emergence
Procedure: as §1

[4] = system: Lolium perenne (LOLPE); settings: 250 g/h, evaluated after 13 days; for LOLPE POST percentage damage caused to the plant (five-point scale): post-emergence; for LOLPE PRE percentage damage caused to the plant (five-point scale): pre-emergence
Procedure: as §1

[5] = system: Setaria faberi (SETFA); settings: 250 g/h, evaluated after 13 days; for SETFA POST percentage damage caused to the plant (five-point scale): post-emergence; for SETFA PRE percentage damage caused to the plant (five-point scale): pre-emergence
Procedure: as §1

Structure (SMILES) | ALOMY POST percentage damage caused to the plant (five-point scale) [1] | ALOMY PRE percentage damage caused to the plant (five-point scale) [1] | AVEFA POST percentage damage caused to the plant (five-point scale) [2] | AVEFA PRE percentage damage caused to the plant (five-point scale) [2] | ECHCG POST percentage damage caused to the plant (five-point scale) [3] | ECHCG PRE percentage damage caused to the plant (five-point scale) [3] | LOLPE POST percentage damage caused to the plant (five-point scale) [4] | LOLPE PRE percentage damage caused to the plant (five-point scale) [4] | SETFA POST percentage damage caused to the plant (five-point scale) [5] | SETFA PRE percentage damage caused to the plant (five-point scale) [5]
CC#Cc1cc(C)c(C2C(=O)CC3(CCNC(=O)C3)CC2=O)c(C)c1 (centres unmarked) [Compound A2] | 3 (3=40-59%) | 3 (3=40-59%) | 4 (4=60-79%) | 3 (3=40-59%) | 5 (5=80-100%) | 3 (3=40-59%) | 4 (4=60-79%) | 4 (4=60-79%) | 5 (5=80-100%) | 5 (5=80-100%)
CC#Cc1cc(C)c(C2C(=O)CC3(CCCN(C(C)=O)C3)CC2=O)c(C)c1 (centres unmarked) [Compound A3] | 5 (5=80-100%) | 2 (2=20-39%) | 5 (5=80-100%) | 3 (3=40-59%) | 5 (5=80-100%) | 2 (2=20-39%) | 5 (5=80-100%) | 2 (2=20-39%) | 5 (5=80-100%) | 3 (3=40-59%)
CC#Cc1cc(C)c(C2C(=O)CC3(CCN(C(C)=O)C3)CC2=O)c(C)c1 (centres unmarked) [Compound A4] | 5 (5=80-100%) | 5 (5=80-100%) | 5 (5=80-100%) | 5 (5=80-100%) | 5 (5=80-100%) | 5 (5=80-100%) | 5 (5=80-100%) | 5 (5=80-100%) | 5 (5=80-100%) | 5 (5=80-100%)
CC#Cc1cc(C)c(C2C(=O)CC3(CCN(C)C(=O)C3=O)CC2=O)c(C)c1 (centres unmarked) [Compound A5] | 5 (5=80-100%) | 3 (3=40-59%) | 4 (4=60-79%) | 3 (3=40-59%) | 5 (5=80-100%) | 5 (5=80-100%) | 5 (5=80-100%) | 5 (5=80-100%) | 5 (5=80-100%) | 5 (5=80-100%)
CC#Cc1cc(C)c(C2C(=O)CC3(CCCN(C(=O)OC(C)(C)C)CC3)CC2=O)c(C)c1 (centres unmarked) [Compound A6] | 5 (5=80-100%) | 4 (4=60-79%) | 4 (4=60-79%) | 4 (4=60-79%) | 5 (5=80-100%) | 5 (5=80-100%) | 5 (5=80-100%) | 5 (5=80-100%) | 5 (5=80-100%) | 5 (5=80-100%)
CC#Cc1cc(C)c(C2C(=O)CC3(CCN(S(=O)(=O)CC)C3)CC2=O)c(C)c1 (centres unmarked) [Compound A7] | 5 (5=80-100%) | 5 (5=80-100%) | 5 (5=80-100%) | 5 (5=80-100%) | 5 (5=80-100%) | 5 (5=80-100%) | 5 (5=80-100%) | 5 (5=80-100%) | 5 (5=80-100%) | 5 (5=80-100%)
CC#Cc1cc(C)c(C2C(=O)CC3(CCCN(S(=O)(=O)CC)CC3)CC2=O)c(C)c1 (centres unmarked) [Compound A8] | 5 (5=80-100%) | 5 (5=80-100%) | 5 (5=80-100%) | 5 (5=80-100%) | 5 (5=80-100%) | 5 (5=80-100%) | 5 (5=80-100%) | 5 (5=80-100%) | 5 (5=80-100%) | 5 (5=80-100%)
CC#Cc1cc(C)c(C2C(=O)CC3(CCCN(C(C)=O)CC3)CC2=O)c(C)c1 (centres unmarked) [Compound A9] | 5 (5=80-100%) | 5 (5=80-100%) | 5 (5=80-100%) | 5 (5=80-100%) | 5 (5=80-100%) | 5 (5=80-100%) | 5 (5=80-100%) | 5 (5=80-100%) | 5 (5=80-100%) | 5 (5=80-100%)
